{"source": "paper PMC5146859", "about": "“Phase 1/2 study of pacritinib, a next generation JAK2/FLT3 inhibitor, in myelofibrosis or other myeloid malignancies” (Journal of Hematology & Oncology, 2016)", "experiment": "Phase 1 pharmacokinetics (liquid chromatography/tandem mass spectrometry)", "assay_type": "in vivo, human", "settings": "for AUC(0-t) / Cmax / Tmax: human, in vivo, oral; for Tmax: read-out: Tmax, Median", "description": "In phase 1, full PK sampling was performed on days 1 and 15 of cycle 1 and day 1 of cycle 2. Trough PK samples were drawn prior to dosing on days 8 and 22 of cycle 1 and at 24, 48, and 72 h after dosing on day 25 of cycle 1. A sample was collected before dosing on day 1 of cycles 4, 7, and 10. Pacritinib concentrations were determined using a validated liquid chromatography/tandem mass spectrometry method. An analysis of clinical exposures from the HCl and citrate salts of pacritinib was performed comparing Day 1 PK data from 12 patients who received the HCl salt formulation in the 200 mg cohorts of this study and two other pacritinib studies [NCT00741871 and NCT00745550]) with six patients in the 200 mg cohort of this study who received the citrate salt formulation.", "note": "Like-named read-outs stand apart in the source and are kept apart here.", "data": [{"smiles": "C1=C/COCc2cc(ccc2OCCN2CCCC2)Nc2nccc(n2)-c2cccc(c2)COC/1", "note": "[pacritinib, 11-(2-pyrrolidin-1-yl-ethoxy)-14,19-dioxa-5,7,26-triaza-tetracyclo[19.3.1.1(2,6). 1(8,12)]heptacosa-1(25),2(26),3,5,8,10,12(27),16,21,23-decaene]", "values": [{"measurement": "Mean PK profiles, citrate vs HCl salts", "setting": "200 mg, day 1, 6 patients citrate vs 12 patients HCl", "result": "similar"}, {"measurement": "AUC(0-t)", "setting": "100 mg, phase 1, Day 1, 100 mg, read-out: AUC0-24h, Mean", "result": 65.9, "unit": "µg·h/mL"}, {"measurement": "AUC(0-t)", "setting": "100 mg, phase 1, Day 1, 100 mg, read-out: AUC0-24h, Median", "result": 56, "unit": "µg·h/mL"}, {"measurement": "Cmax", "setting": "100 mg, phase 1, Day 1, 100 mg, read-out: Cmax, Mean", "result": 3700, "unit": "ng/mL"}, {"measurement": "Cmax", "setting": "100 mg, phase 1, Day 1, 100 mg, read-out: Cmax, Median", "result": 2910, "unit": "ng/mL"}, {"measurement": "Tmax", "setting": "100 mg, phase 1, Day 1, 100 mg", "result": 5, "unit": "h"}, {"measurement": "AUC(0-t)", "setting": "100 mg, phase 1, Day 15, 100 mg, read-out: AUC0-24h, Mean", "result": 120, "unit": "µg·h/mL"}, {"measurement": "AUC(0-t)", "setting": "100 mg, phase 1, Day 15, 100 mg, read-out: AUC0-24h, Median", "result": 121, "unit": "µg·h/mL"}, {"measurement": "Cmax", "setting": "100 mg, phase 1, Day 15, 100 mg, read-out: Cmax, Mean", "result": 6360, "unit": "ng/mL"}, {"measurement": "Cmax", "setting": "100 mg, phase 1, Day 15, 100 mg, read-out: Cmax, Median", "result": 6180, "unit": "ng/mL"}, {"measurement": "Tmax", "setting": "100 mg, phase 1, Day 15, 100 mg", "result": 3, "unit": "h"}, {"measurement": "AUC(0-t)", "setting": "150 mg, phase 1, Day 1, 150 mg, read-out: AUC0-24h, Mean", "result": 64.7, "unit": "µg·h/mL"}, {"measurement": "AUC(0-t)", "setting": "150 mg, phase 1, Day 1, 150 mg, read-out: AUC0-24h, Median", "result": 69.2, "unit": "µg·h/mL"}, {"measurement": "Cmax", "setting": "150 mg, phase 1, Day 1, 150 mg, read-out: Cmax, Mean", "result": 3720, "unit": "ng/mL"}, {"measurement": "Cmax", "setting": "150 mg, phase 1, Day 1, 150 mg, read-out: Cmax, Median", "result": 3790, "unit": "ng/mL"}, {"measurement": "AUC(0-t)", "setting": "150 mg, phase 1, Day 15, 150 mg, read-out: AUC0-24h, Mean", "result": 140, "unit": "µg·h/mL"}, {"measurement": "AUC(0-t)", "setting": "150 mg, phase 1, Day 15, 150 mg, read-out: AUC0-24h, Median", "result": 114, "unit": "µg·h/mL"}, {"measurement": "Cmax", "setting": "150 mg, phase 1, Day 15, 150 mg, read-out: Cmax, Mean", "result": 6700, "unit": "ng/mL"}, {"measurement": "Cmax", "setting": "150 mg, phase 1, Day 15, 150 mg, read-out: Cmax, Median", "result": 5410, "unit": "ng/mL"}, {"measurement": "Tmax", "setting": "150 mg, phase 1, Day 15, 150 mg", "result": 2.5, "unit": "h"}, {"measurement": "AUC(0-t)", "setting": "300 mg, phase 1, Day 1, 300 mg, read-out: AUC0-24h, Mean", "result": 87.1, "unit": "µg·h/mL"}, {"measurement": "AUC(0-t)", "setting": "300 mg, phase 1, Day 1, 300 mg, read-out: AUC0-24h, Median", "result": 98.2, "unit": "µg·h/mL"}, {"measurement": "Cmax", "setting": "300 mg, phase 1, Day 1, 300 mg, read-out: Cmax, Mean", "result": 5240, "unit": "ng/mL"}, {"measurement": "Cmax", "setting": "300 mg, phase 1, Day 1, 300 mg, read-out: Cmax, Median", "result": 5830, "unit": "ng/mL"}, {"measurement": "AUC(0-t)", "setting": "300 mg, phase 1, Day 15, 300 mg, read-out: AUC0-24h, Mean", "result": 133, "unit": "µg·h/mL"}, {"measurement": "AUC(0-t)", "setting": "300 mg, phase 1, Day 15, 300 mg, read-out: AUC0-24h, Median", "result": 134, "unit": "µg·h/mL"}, {"measurement": "Cmax", "setting": "300 mg, phase 1, Day 15, 300 mg, read-out: Cmax, Mean", "result": 6410, "unit": "ng/mL"}, {"measurement": "Cmax", "setting": "300 mg, phase 1, Day 15, 300 mg, read-out: Cmax, Median", "result": 6860, "unit": "ng/mL"}, {"measurement": "AUC(0-t)", "setting": "400 mg, phase 1, Day 1, 400 mg, read-out: AUC0-24h, Mean", "result": 127, "unit": "µg·h/mL"}, {"measurement": "AUC(0-t)", "setting": "400 mg, phase 1, Day 1, 400 mg, read-out: AUC0-24h, Median", "result": 118, "unit": "µg·h/mL"}, {"measurement": "Cmax", "setting": "400 mg, phase 1, Day 1, 400 mg, read-out: Cmax, Mean", "result": 6280, "unit": "ng/mL"}, {"measurement": "Cmax", "setting": "400 mg, phase 1, Day 1, 400 mg, read-out: Cmax, Median", "result": 5640, "unit": "ng/mL"}, {"measurement": "Tmax", "setting": "400 mg, phase 1, Day 1, 400 mg", "result": 8, "unit": "h"}, {"measurement": "AUC(0-t)", "setting": "400 mg, phase 1, Day 15, 400 mg, read-out: AUC0-24h, Mean", "result": 203, "unit": "µg·h/mL"}, {"measurement": "AUC(0-t)", "setting": "400 mg, phase 1, Day 15, 400 mg, read-out: AUC0-24h, Median", "result": 240, "unit": "µg·h/mL"}, {"measurement": "Cmax", "setting": "400 mg, phase 1, Day 15, 400 mg, read-out: Cmax, Mean", "result": 9770, "unit": "ng/mL"}, {"measurement": "Cmax", "setting": "400 mg, phase 1, Day 15, 400 mg, read-out: Cmax, Median", "result": 11700, "unit": "ng/mL"}, {"measurement": "AUC(0-t)", "setting": "500 mg, phase 1, Day 1, 500 mg, read-out: AUC0-24h, Mean", "result": 141, "unit": "µg·h/mL"}, {"measurement": "AUC(0-t)", "setting": "500 mg, phase 1, Day 1, 500 mg, read-out: AUC0-24h, Median", "result": 118, "unit": "µg·h/mL"}, {"measurement": "Cmax", "setting": "500 mg, phase 1, Day 1, 500 mg, read-out: Cmax, Mean", "result": 7050, "unit": "ng/mL"}, {"measurement": "Cmax", "setting": "500 mg, phase 1, Day 1, 500 mg, read-out: Cmax, Median", "result": 6310, "unit": "ng/mL"}, {"measurement": "AUC(0-t)", "setting": "500 mg, phase 1, Day 15, 500 mg, read-out: AUC0-24h, Mean", "result": 178, "unit": "µg·h/mL"}, {"measurement": "AUC(0-t)", "setting": "500 mg, phase 1, Day 15, 500 mg, read-out: AUC0-24h, Median", "result": 161, "unit": "µg·h/mL"}, {"measurement": "Cmax", "setting": "500 mg, phase 1, Day 15, 500 mg, read-out: Cmax, Mean", "result": 8730, "unit": "ng/mL"}, {"measurement": "Cmax", "setting": "500 mg, phase 1, Day 15, 500 mg, read-out: Cmax, Median", "result": 7990, "unit": "ng/mL"}, {"measurement": "AUC(0-t)", "setting": "600 mg, phase 1, Day 1, 600 mg, read-out: AUC0-24h, Mean", "result": 136, "unit": "µg·h/mL"}, {"measurement": "AUC(0-t)", "setting": "600 mg, phase 1, Day 1, 600 mg, read-out: AUC0-24h, Median", "result": 129, "unit": "µg·h/mL"}, {"measurement": "Cmax", "setting": "600 mg, phase 1, Day 1, 600 mg, read-out: Cmax, Mean", "result": 8330, "unit": "ng/mL"}, {"measurement": "Cmax", "setting": "600 mg, phase 1, Day 1, 600 mg, read-out: Cmax, Median", "result": 7880, "unit": "ng/mL"}, {"measurement": "Tmax", "setting": "600 mg, phase 1, Day 1, 600 mg", "result": 4.5, "unit": "h"}, {"measurement": "AUC(0-t)", "setting": "600 mg, phase 1, Day 15, 600 mg, read-out: AUC0-24h, Mean", "result": 161, "unit": "µg·h/mL"}, {"measurement": "AUC(0-t)", "setting": "600 mg, phase 1, Day 15, 600 mg, read-out: AUC0-24h, Median", "result": 161, "unit": "µg·h/mL"}]}]}
